Test results: a melting point compilation (Tetko et al.; mined from patent text by program, amines drawn as free bases though some values may be those of a salt)

SMILES | melting point [°C]
CC1(C)OC(=O)Nc2ccc(-c3cc(F)cc([N+](=O)[O-])c3)cc21 | 260 to 261
Cc1c(C)c2c(c(C)c1NS(C)(=O)=O)C(c1ccc(C(C)C)cc1)CO2 (stereo unspecified) | 132 to 133
COc1ccc(CN2C(=O)[C@@H](N3C(=O)c4ccccc4C3=O)[C@H]2/C=C/c2ccccc2)c(OC)c1 (relative stereo) | 173 to 177
COC(=O)c1cccc2c1c1c(O)c3c(cc1n2Cc1ccccc1)CCCC3 | 174 to 176
O=C(c1cc(C2CCCCC2)ccn1)N(O)Cc1ccccc1 | 106 to 110
N#Cc1cc[nH]c1-c1cc2ccccc2o1 | 157 to 160
CCOC(=O)c1cnc2ccc3nc(Cl)sc3c2c1Cl | 143 to 146
Clc1cc(OCCOc2ccc3ccccc3c2)cc(Cl)c1Br | 140 to 142
O=C1c2cccc(NCCO)c2OC12CC2 | 74 to 77
CC(=O)NCc1ccc(CN2CCN(c3ccc(F)cc3)CC2)cc1 | 164 to 166
Cc1csc(=Nc2ccccc2C)s1 | 65.5 to 69
CC1CCc2ncc([N+](=O)[O-])cc2C1 (stereo unspecified) | 50 to 52
Cc1ccc(CC(C(=O)NC(Cc2ccc(C#N)cc2)C(=O)N(C)C)S(=O)(=O)Nc2cccc3ccccc23)c(C)c1 (stereo unspecified) | 140
COc1c(C)cc(C2=C(c3ccc(S(C)(=O)=O)cc3)OC(C)(C)C2=O)cc1C | 130 to 131
CC(=O)NC[C@H]1CN(c2ccc(C(=O)c3cnc4c(Br)cc(C)cn34)cc2)C(=O)O1 | 221 to 223
COc1cc2c(cc1N1CCNCC1)OCC2 | 108 to 109
CCc1ccc(Cn2cc(-c3ccc(OC)cc3)ccc2=O)cn1 | 130
CS(=O)(=O)Oc1cc(NN)c(F)cc1Cl | 75 to 77

SMILES | melting point [°C]
Cc1ccc(-c2noc3c(Cl)c(OCC(=O)O)ccc23)s1 | 235 to 238
CCN(CC)CCCC1CCCN(C(=O)N2c3ccccc3NC(=O)c3csc(C)c32)C1 (stereo unspecified) | 136 to 138
COc1nc(C)c(N2CCCn3c2nc2c(C#N)ccc(C(OC(F)F)C(F)(F)F)c23)c(C)n1 (stereo unspecified) | 250 to 252
C=Cc1cc(OP(=O)(O)O)cc2nc(-c3ccc(OP(=O)(O)O)c(F)c3)oc12 | > 180
O=C1c2ccc([N+](=O)[O-])cc2C(=O)N1C1CCN(Cc2cccnc2)CC1 | 143 to 144
Cc1ccnc(-n2ccnc2S(=O)Cc2ccccc2N(C)C)c1 (stereo unspecified) | 127 to 129
CCCN(CCC)c1ccccc1C(C)C(C(N)=O)c1ccc(C(=O)O)cc1 (stereo unspecified) | 175 to 178
CCOC(=O)c1cnn(-c2ccc(F)cc2)c1Cl | 70 to 72
CN1C(=O)CN=C(c2ccc(O)cc2)c2cc(Cl)ccc21 | 225 to 259
COc1ccc2c(C)nnc(Cl)c2c1 | 151 to 153
Fc1cccc(-c2ncc(-c3cnc(-c4cccnc4)[nH]3)cn2)c1 | 309
Nc1nc(NCCNCC(O)COc2ccccc2)c2[nH]cnc2n1 (stereo unspecified) | 169 to 171
COC(=O)c1nc(Br)cc(N=[N+]=[N-])c1Cl | 84 to 86
O=C(O)c1ccc(-c2nc(-c3ccccc3C(F)(F)F)co2)cc1 | 264 to 265
CCCc1nn(C)c2c(=O)[nH]c(-c3cc(S(=O)(=O)Cl)cc4c3OCC4)nc12 | 221 to 222
Nc1cc(C2SCCCS2)c(Cl)cc1F | 112 to 115
Cc1cc(CC(=O)O)c(CC(C)N)cc1C (stereo unspecified) | 222 to 223
COc1ccc2cc(S(=O)(=O)Cc3ccc(OC)c([N+](=O)[O-])c3)c(=O)oc2c1 | 250 to 252

Now from value to molecule:

melting point [°C] | SMILES
178 to 179 | CCc1ccc(-c2ccc(C(=O)Nc3ccc4cc(CN5CCCC5)cnc4c3C)c(F)c2)cc1
65 | COC(=O)c1cccc(OCc2cc(Br)cs2)c1C(=O)OC
104 | CCCCCCCc1cc(O)cc(O)c1C(=O)OCc1ccccc1
199 to 203 | CCN1C(=O)c2cccc3c(S(C)(=O)=O)ccc1c23
91 to 94 | O=C(O)CCCNC(=O)COc1ccccc1
161 to 163 | Cc1c(-c2ccccc2)nn(C)c1C(=O)O
110 to 111 | Cc1cc(-c2noc(C(F)F)n2)cc(C)c1OCCCc1n[nH]c(=O)s1
112 to 119 | NC(=O)c1ccccc1N1CCOCC1
99 to 101 | Cc1ccc(C(=O)c2cccc3c2CCC3(C)C(=O)O)cc1 (stereo unspecified)
149 to 150 | O=c1[nH]c2ccccc2n1C1CCN(CCCOc2ccc(F)cc2Cl)CC1
58 to 60 | COc1ccc(Sc2sccc2C=O)cc1
134 to 138 | COc1ccccc1N1CCN(CCCNC(=O)c2cccc3c(=O)c(C)c(-c4cccc5ccccc45)oc23)CC1
117 to 121 | CCCCCCCCCCCCNC(=O)C(CC(=O)O)Sc1nc2ccccc2s1 (stereo unspecified)
229 to 233 | CCN(CC)CCC/C=C/c1cc2ncc(C#N)c(Nc3ccc(Sc4nccn4C)c(Cl)c3)c2cc1OC
132 to 134 | CC(C)(C)c1cc(-c2ccccc2NC(=O)CCCC(=O)O)cc(C(C)(C)C)c1O
53 to 55 | O=C(O)CCCOc1cccc(OCCC(c2ccccc2)(c2ccccc2)c2ccccc2)c1
200 to 201 | CCc1cccc(CC)c1NC(=O)NCC(c1ccccc1)c1ccccc1
185 | O=C(Nc1cc2ncc(CN3CCCC3)cc2cc1Cl)c1ccc(-c2ccc(Cl)s2)cc1

melting point [°C] | SMILES
214 | COC(=O)Nc1cccc2c1C(=O)c1ccccc1C2=O
132 to 133 | COc1ccc(C(=O)NCCCCCCCNC(=O)c2ccc(OC)c(Cl)c2)cc1Cl
115 to 116 | CCOC(=O)CNc1ncccc1NC(=O)c1ccccc1
98 to 101 | COC1CCCCC1(O)c1ccncc1 (stereo unspecified)
177 to 178 | Cc1c(C)c2c(c(C)c1NC(=O)C(C)(C)C)C(c1ccc(C(C)C)cc1)CO2 (stereo unspecified)
90 to 93 | C=C(C(=O)c1ccc(Cl)cc1)c1ccc(Cl)cc1Cl
150 | O=C(Nc1ccc(Cl)c(C(F)(F)F)c1)Oc1ccc2c(c1)CCCN2
121 to 122 | CC(C)(C)c1ccc(C(O)CCCCC2CCCCC2)cc1C(C(N)=O)C1c2ccccc2Oc2ccccc21 (stereo unspecified)
209 to 211 | O=S1CCN(c2nc(N3CCNCC3)cc3ccc(Cl)cc23)CC1
69 | CCOP(=O)(OCC)c1cnc2ccc(C(F)(F)F)cc2c1
197 to 200 | Nc1cc(Oc2ccc3c(C(=O)Nc4cccc(C(F)(F)F)c4)nccc3c2)ncn1
165 to 166 | NC1=NN(c2cccc(F)c2)C(c2ccccc2)C1 (stereo unspecified)
118 | CC(C)(C)OC(=O)NC1CCN(C2CCN(Cc3ccccc3)CC2)C1 (stereo unspecified)
211 to 213 | Nc1cc(S(=O)(=O)c2ccccc2)c([N+](=O)[O-])c2cccnc12
117 to 119 | O=S(=O)(Nc1cccc(Cl)c1Cl)c1cc(S(=O)(=O)Nc2cccc(Cl)c2Cl)c2cc(O)ccc2c1
166 to 169 | Nc1ccc(Oc2ccc(C34CC5CC(C3)CC(c3ccc(Oc6ccc(N)c(O)c6)cc3)(C5)C4)cc2)cc1O
140 to 141 | O=c1oc(-c2ccccc2)cc(O)c1SCc1cccc(OCc2ccccc2)c1
